# Data: publication PMC5701137, “Discovery of novel choline acetyltransferase inhibitors using structure-based virtual screening” (Scientific Reports, 2017)
# Experiments:
# recombinant human AChE = target: T1, recombinant human AChE (Homo sapiens, UniProt P22303); assay: Modified Ellman's colorimetric assay for AChE and kinetic studies; type: biochemical; conditions: 200 µM compound, compared to control, mean of three experiments in triplicate; for inhibition at 200 µM: read-out: AChE % IR (inhibition rate)
# T1 construct: purchased Sigma C1682
# Source text: (§1) A modified version of Ellman’s colorimetric assay[16],[17] was adapted to a high throughput assay for the enzymatic activity of BuChE and AChE. The reagent, butyrylthiocholine iodide (BTC), acetylthiocholine iodide (ATC), 5,5′-dithiobis (2-nitrobenzoic acid) (DTNB) were purchased from Sigma-Aldrich (St. Louis, MO, USA). The modified assay details are as previously described[34],[35]. The main modification concerned with the high throughput adaptation of the assay for use in 384-well plates. Briefly, 25 μL/well of a 1:450 diluted solution of a pooled human plasma and 1:768 diluted (3.5 ng/ml final concentration) purified recombinant human AChE protein (Sigma, Cat no. C1682) was used for measurement of BuChE and AChE activity, respectively. In the initial in vitro screening step, the wells were pre-incubated with 25 μL/wells of different Asinex compounds for 10–30 minutes at room temperature. The concentration of the compounds working solution was 3X to give a final concentration of 200 μM in a final volume of 75 μL in each well. The stock concentration of the compounds were prepared in 100% DMSO. The stock concentration was chosen usually at 10 mM, allowing the final DMSO concentration in the wells to be less than 4%. Finally, 25 μL of a cocktail mix prepared in Na/K phosphate buffer, containing DTNB (final concentration 0.4 mM) and BTC, (final concentration 1 mM) or ATC (final concentration 0.5 mM) was added to each well and the changes in absorbance was monitored at 412 nm wavelength for 15–20 minutes with one-minute interval, using a microplate spectrophotometer reader (Infinite M1000, Tecan). The rate of the enzyme activity was determined from the linear part of the kinetic reaction curves as ∆OD/time.
# (§2) For kinetic studies, a similar protocol as inhibition assay was followed; a dilution series of five different concentrations ranging from 10^−6 to 10^−9 M were prepared for each selected Asinex compounds. For ChAT, the A-CoA was kept constant at 10 μM (final) but the concentration of choline chloride varied between 320–10 μM. For BuChE, BTC was used as the substrate in the concentrations ranging from 0.0625 to 2 mM. For AChE, ATC was used as the substrate in the concentrations ranging from 0.0312 to 1 mM. Each compound concentration was measured in duplicates. The rate of enzyme activity (as ∆OD/hr kinetic data) was calculated and processed using the GraphPad Prism 7 analysis software. The inhibitory constant (Ki) values were determined from the dose-response curve and the half-maximal inhibitory concentration (IC50) values were calculated by plotting the percentage enzyme activity vs. the log of the Asinex compound concentrations and fitting the data using the nonlinear regression Enzyme Kinetics-Inhibition function.
# HEK 293 cells = assay: MTT cell viability assay; type: cell-based; conditions: for % of cell proliferation: overnight, control cells 100%, mean ± SD of 3 readings; for cellular toxicity in MTT assay (in words): 10 and 50 µM
# Procedure: Finally, to assess the prospective of the identified compounds for further development into ChAT ligands, we assessed the compounds active against ChAT, AChE and BuChE, for their cellular toxicity on human embryonic kidney (HEK 293) cells using the cell viability 3-(4,5-dimethylthiazol-2-yl)-2,5-diphenyltetrazolium bromide (MTT) assay. All compounds were evaluated at 10 and 50 µM concentrations. The cell viability data is given in Table 4 (also represented as a bar chart in Fig. 9).
# The in vitro cellular toxicity of the active compounds was evaluated using MTT assay. Briefly, Human embryonic kidney epithelial (HEK-293) cells cultured at 37 °C in a humidified environment with 5% CO2 in Dulbecco’s Modified Eagle’s medium (DMEM) in 96 well plate to obtain 70–80% confluency. Further, the cells were incubated overnight at 37 °C with 10 µM and 50 µM compounds in triplicate. Cells treated with 1% DMSO were used as controls. At the end of the treatment (12 h), 10 μL of 12 mM MTT dissolved in Phosphate buffer saline pH 7.4, was added to each well and incubated for an additional 2 h at 37 °C. The media was then removed from the plate and 100 µL of DMSO was added to dissolve the violet formazan crystals. Finally, the absorbance was measured at 540 nm with a reference wavelength of 630 nm on Tecan spectrophotometer with shaking before the reading. The percentage viability was calculated taking 1% DMSO control as 100 percent and presented as mean ± SD.
# plasma BuChE = target: T2, plasma BuChE (Homo sapiens, UniProt P06276); assay: Modified Ellman's colorimetric assay for BuChE (pooled human plasma) and kinetic studies; type: biochemical; conditions: 200 µM compound, compared to control, mean of three experiments in triplicate; for BuChE % IR (inhibition rate): 200 µM; for inhibition at 200 µM: read-out: BuChE % IR (inhibition rate)
# T2 construct: 1:450 diluted solution of a pooled human plasma; from tissue; host or cells: pooled human plasma
# Source text: as §1, §2
# human rChAT = target: T3, human rChAT (Homo sapiens, UniProt P28329); assay: In vitro ChAT activity inhibition fluorometric assay and kinetic studies; type: biochemical; conditions: mean ± SEM of two experiments
# T3 construct: made in house; host or cells: E. coli BL21 Rosetta2
# T3 sequence (P28329 1-630 isoform P28329-3): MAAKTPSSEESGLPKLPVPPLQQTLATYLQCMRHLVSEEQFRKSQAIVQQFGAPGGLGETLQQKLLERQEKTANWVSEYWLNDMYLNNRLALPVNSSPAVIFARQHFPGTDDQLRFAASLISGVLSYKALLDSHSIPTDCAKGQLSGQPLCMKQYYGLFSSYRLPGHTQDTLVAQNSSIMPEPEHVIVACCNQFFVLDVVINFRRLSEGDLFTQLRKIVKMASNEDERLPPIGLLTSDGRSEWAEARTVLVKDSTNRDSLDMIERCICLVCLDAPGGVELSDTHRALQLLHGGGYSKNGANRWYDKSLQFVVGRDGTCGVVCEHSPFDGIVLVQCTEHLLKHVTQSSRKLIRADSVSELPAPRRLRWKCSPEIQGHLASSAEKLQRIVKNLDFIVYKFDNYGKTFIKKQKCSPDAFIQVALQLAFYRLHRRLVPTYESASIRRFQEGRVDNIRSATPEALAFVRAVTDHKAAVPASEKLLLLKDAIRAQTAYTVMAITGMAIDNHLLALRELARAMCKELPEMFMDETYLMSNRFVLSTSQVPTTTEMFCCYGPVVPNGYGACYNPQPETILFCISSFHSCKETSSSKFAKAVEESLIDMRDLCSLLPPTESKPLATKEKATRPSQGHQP
# T1 sequence (P22303 32-614): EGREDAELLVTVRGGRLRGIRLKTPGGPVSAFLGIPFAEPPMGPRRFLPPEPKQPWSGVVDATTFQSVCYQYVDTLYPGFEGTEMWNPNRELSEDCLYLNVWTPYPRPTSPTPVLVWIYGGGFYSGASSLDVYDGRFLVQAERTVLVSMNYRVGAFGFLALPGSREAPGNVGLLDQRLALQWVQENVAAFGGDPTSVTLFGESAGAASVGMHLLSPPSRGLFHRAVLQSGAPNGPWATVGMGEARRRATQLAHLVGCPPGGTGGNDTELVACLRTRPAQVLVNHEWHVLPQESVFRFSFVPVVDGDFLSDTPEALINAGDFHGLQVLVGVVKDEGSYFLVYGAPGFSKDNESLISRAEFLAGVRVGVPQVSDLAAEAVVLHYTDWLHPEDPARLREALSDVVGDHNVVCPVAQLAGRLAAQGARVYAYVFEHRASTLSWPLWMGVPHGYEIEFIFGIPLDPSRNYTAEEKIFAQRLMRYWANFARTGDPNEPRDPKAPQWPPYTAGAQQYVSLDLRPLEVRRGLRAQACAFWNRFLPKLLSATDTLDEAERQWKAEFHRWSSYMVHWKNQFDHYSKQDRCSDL
# T2 sequence (P06276 29-602): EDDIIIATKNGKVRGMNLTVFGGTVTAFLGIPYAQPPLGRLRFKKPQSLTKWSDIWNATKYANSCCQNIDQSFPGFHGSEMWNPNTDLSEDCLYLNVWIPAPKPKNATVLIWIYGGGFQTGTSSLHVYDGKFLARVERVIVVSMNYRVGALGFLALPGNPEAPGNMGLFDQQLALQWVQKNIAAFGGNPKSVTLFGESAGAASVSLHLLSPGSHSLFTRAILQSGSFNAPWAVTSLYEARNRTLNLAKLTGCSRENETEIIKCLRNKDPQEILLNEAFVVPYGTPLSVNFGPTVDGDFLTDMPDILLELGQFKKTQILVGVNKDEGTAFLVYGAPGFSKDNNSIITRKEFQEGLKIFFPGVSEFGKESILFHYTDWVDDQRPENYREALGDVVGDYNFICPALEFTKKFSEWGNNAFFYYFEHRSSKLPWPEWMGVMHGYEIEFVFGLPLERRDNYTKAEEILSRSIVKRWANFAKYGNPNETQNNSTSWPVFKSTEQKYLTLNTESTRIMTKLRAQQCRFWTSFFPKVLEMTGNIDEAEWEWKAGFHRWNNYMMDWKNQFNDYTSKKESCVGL
Compound,inhibition at 200 µM (recombinant human AChE),% of cell proliferation (HEK 293 cells; 10 µM),% of cell proliferation (HEK 293 cells; 50 µM),cellular toxicity in MTT assay (in words) (HEK 293 cells),BuChE % IR (inhibition rate) (plasma BuChE),inhibition at 200 µM (plasma BuChE),Vmax of rChAT (human rChAT; inhibitor 2.0 µM),Vmax of rChAT (human rChAT; inhibitor 10.0 µM),Vmax of rChAT (human rChAT; inhibitor 50.0 µM),Vmax of rChAT (human rChAT; inhibitor 250.0 µM),AChE % IR (inhibition rate) (recombinant human AChE; 200 µM)
CC(C)NC(=O)C1CCN(C(=O)c2csc(Nc3cccc4ccccc34)n2)CC1 [Compound B4],0%,106.4 ± 5.8%,74.2 ± 3.9%,lower cellular toxicity,22.1%,22%,226 ± 20.9 µM/min,150.9 ± 13.5 µM/min,92.1 ± 19.4 µM/min,45.5 ± 8.5 µM/min,–
CC(C)c1ccc(C(=O)CSc2n[nH]c(-c3ccco3)n2)cc1 [Compound E1],12%,101.9 ± 0.6%,75.4 ± 4.9%,lower cellular toxicity,17.2%,17%,265.1 ± 11.7 µM/min,243.8 ± 22.0 µM/min,167.8 ± 10.4 µM/min,160.3 ± 16.8 µM/min,12.4%
